This note sets out measurements from US11478474B2, “2-(3′-(hydroxymethyl)-1-methyl-5-((5-(2-methyl-4-(oxetan-3-yl)piperazin-1-yl)pyridin-2-yl)amino)-6-oxo-1,6-dihydro-[3,4′-bipyridin]-2′-yl)-7,7-dimethyl-7,8-dihydro-2H-cyclopenta[4,5]pyrrolo[1,2-a]pyrazin-1(6H)-one as a BTK inhibitor” (HUTCHISON MEDIPHARMA LIMITED, priority 2020, dated 2022).

In test [1] the target is phosphorylated BTK in Ramos cells (Homo sapiens (Human), UniProt Q06187). The experiment in a line: Determination of phosphorylated BTK in Ramos cells (BTK phospho-Y223 HTRF). The test is classed as cell-based. To be noted: anti-human IgM + hydrogen peroxide stimulation. The protocol:
Determination of Phosphorylated BTK in Ramos Cells
(§1) 1. Reagents and Materials
Ramos cells: Ramos cells were purchased from American Standard Biological Collection Center ATCC Cell Bank, PRMI 1640 medium containing L-glutamine, 1.5 g/L of sodium bicarbonate, 2.383 g/L of HEPES solution, 0.11 g/L of sodium pyruvate and 4.5 g/L of glucose was used, added 10% fetal bovine serum FBS, and placed in a 5% CO2, 37° C. cell incubator for normal culture;
Phosphorylated BTK HTRF detection kit (BTK phospho-Y223 HTRF kit): Cisbio, Cat #63ADK017PEH;
Ramos cells were starved in PRMI 1640 medium with 1% FBS for 2 hours. The starved Ramos cells were diluted with Hank's balanced salt solution to 5.0×10^6 cells/ml, seeded in a 96-well plate with 20 μL/well (1.0×10^5 cells/well), and cultured in a 5% CO2, 37° C. cell incubator. After culturing for 1 hour, the test compound was diluted with Hank's balanced salt solution in 4-fold gradient to the corresponding concentrations, and then 5 μL/well of the diluted test compound with different concentrations (the final concentrations of the test compound were 3.0, 0.75, 0.188, 0.047, 0.012, 0.0029, 0.0007 and 0.00018 μM, and the final concentration of DMSO was 0.3%, double replicate wells) or 5 μL/well of control solution (1.5% DMSO, 8 replicate wells) were added to 20 μL/well of cell culture system, which incubated together for another hour, then 5 μL/well of a mixed solution of human immunoglobulin M (final concentration was 10 μg/mL) and hydrogen peroxide (final concentration was 3.3 mM) diluted with Hank's balanced salt solution was added to the treating wells for the test compound and the control treating wells for anti-human immunoglobulin M, and 5 μL/well of Hank's balanced salt solution was added to negative control treating wells. The plate was incubated in a 5% CO2, 37° C. cell incubator for 10 minutes.
10 μL/well of cell lysis buffer was added to each well of a 96-well plate, which was mixed well and lysed at room temperature for 30 minutes. 16 μL/well of lysis buffer was pipetted to a new 384 well plate, and then added 4 μL/well of phosphorylated BTK antibody, centrifuged (1000 rpm) for 1 minute, then shaken for 1 minute, further centrifuged (1000 rpm) for 1 minute, and finally placed in a constant temperature incubator overnight. Detection was performed on the next day.
The 384 well plate incubated overnight in the constant temperature incubator was taken out to detect the luminescence signal using the Envision microwell plate reader at the […]. The reading value at 665 nm/615 nm of each well multiplied by 104 was used as the signal value of each well.
The average signal value of the wells supplemented with the mixed solution of human immunoglobulin M (final concentration was 10 μg/mL) and hydrogen peroxide (final concentration was 3.3 mM) without the test compound was regarded as the high value, and the average signal value of the wells without immunoglobulin M stimulation and without the test compound was regarded as the low value. According to the signal value in each well, the inhibition ratio (%) of each concentration of compounds was calculated, and the 205 model in XL-Fit 5.3 software (ID Business Solutions Limited) was used to obtain an IC50 value.
The inhibition ratio is calculated as follows: inhibition ratio (%)=100%−{(treating well for the test compound−negative control treating well)/(control treating well for anti-human immunoglobulin M−negative control treating well)}×100%, wherein,
Treating well for the test compound: represents the signal value of Ramos cells treated with anti-human immunoglobulin M, hydrogen peroxide and the test compound.
Control treating well for anti-human immunoglobulin M: represents the signal value of Ramos cells treated with anti-human immunoglobulin M, hydrogen peroxide but without the test compound. […]

The target in a further test is BTK recombinant protein (Homo sapiens (Human), UniProt Q06187). The experiment in a line: Determination of biochemical BTK (Z'-LYTE kinase assay).
Sequence of BTK recombinant protein (Q06187 whole entry): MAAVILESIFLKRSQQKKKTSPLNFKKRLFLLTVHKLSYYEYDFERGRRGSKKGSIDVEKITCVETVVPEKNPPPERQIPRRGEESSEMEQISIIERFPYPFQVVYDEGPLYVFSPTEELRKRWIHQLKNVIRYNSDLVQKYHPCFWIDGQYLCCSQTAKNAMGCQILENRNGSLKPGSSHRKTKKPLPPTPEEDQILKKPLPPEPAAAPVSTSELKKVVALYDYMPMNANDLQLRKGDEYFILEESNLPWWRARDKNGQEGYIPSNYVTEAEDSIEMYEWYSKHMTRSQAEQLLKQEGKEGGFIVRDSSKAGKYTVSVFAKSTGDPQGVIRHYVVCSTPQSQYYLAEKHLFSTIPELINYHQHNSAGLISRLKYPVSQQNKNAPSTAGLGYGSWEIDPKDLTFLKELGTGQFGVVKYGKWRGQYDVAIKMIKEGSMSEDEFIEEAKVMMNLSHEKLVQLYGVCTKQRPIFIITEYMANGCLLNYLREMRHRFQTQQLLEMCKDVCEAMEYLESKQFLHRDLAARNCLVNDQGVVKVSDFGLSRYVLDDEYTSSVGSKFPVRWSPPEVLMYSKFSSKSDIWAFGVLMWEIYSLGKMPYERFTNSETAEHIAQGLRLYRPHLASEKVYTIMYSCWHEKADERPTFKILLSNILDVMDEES
Source text: Example 2 Determination of Biochemical BTK
as §1
BTK recombinant protein: Invitrogen, Cat #PV3363;
Z′-LYTE® kinase test kit-tyrosine 1 peptide: Invitrogen, Cat #PV3190;
Z′-LYTE® biochemical assay employs a fluorescence resonance energy transfer (FRET)—based, coupled-enzyme format and is based on the differential sensitivity of phosphorylated and non-phosphorylated peptides to proteolytic cleavage. Both ends of the short peptide substrate are labeled with two fluorescent groups to form a FRET paired combination. In the primary reaction (the Kinase Reaction), the kinase transfers the γ-phosphate of ATP to a single […] residue on the short peptide substrate. In the secondary reaction (the development reaction), the non-phosphorylated short peptides were recognized and cleaved by a site-specific protease (the development reagent). Phosphorylated short peptides can resist such cleavage. Cleavage of short peptides can disrupt the donor (such as coumarin) and receptor fluorophores (fluorescein) on the short peptides, while the phosphorylated short peptides can maintain FRET. The calculation method of the ratio is as follows, and the ratio of the respective emission signals generated by the donor fluorophores emitted (after excitation at 400 nm) to the receptors is calculated. Emission signal ratio=emitted light by coumarin (445 nm)/emitted light by fluorescein (520 nm). If the FRET short peptide is phosphorylated (such as no kinase inhibitor), the emitted light ratio will remain in a lower level. If the FRET short peptide is non-phosphorylated (such as kinase inhibitor), the emitted light ratio will be in a higher level. In this way, the inhibitory effects of different compound inhibitors on BTK kinase activity would be distinguished.
The experiment were carried out according to the instructions of the Z′-LYTE® kinase test kit-tyrosine 1 peptide. Reagent preparation: 1.33× kinase buffer: 5× kinase buffer was diluted with water to 1.33× kinase buffer; an enzyme solution: the kinase was dissolved in 1.33× kinase buffer with the final working concentration being 3.32 nM; a short peptide solution: a short peptide stock solution (1 mM dissolved in DMSO) was dissolved in 1.33× kinase buffer with the final working concentration being 2 μM; Z′-LYTE Tyr01 phosphorylated short peptide solution, 0.6 μl of stock solution (1 mM dissolved in DMSO) was dissolved in 149.4 μl of 1.33× kinase buffer; an ATP solution: an ATP stock solution (10 mM aqueous solution) was dissolved in 1.33× kinase buffer with the final working concentration being 32 μM; a color-developing solution: color-developing solution B was dissolved in color-developing buffer with the final working concentration being 1× color-developing solution; 4× compound preparation: the compound was diluted in 3-fold gradient concentration to finally obtain 4% DMSO aqueous solution containing different concentrations of the compound, with the final working concentration being 3000, 1000, 333.33, 111.11, 37.04, 12.35, 4.12, 1.37 nM, 8 concentration points in total.
Specific steps of the experiment: In the experiment, there were three control groups, each with 8 replicate wells, which were C1 100% inhibition group (no ATP), C2 0% inhibition group (with ATP), and C3 100% phosphorylation group, respectively. 2.5 μl of serially diluted compound was added to each well of a 384-well plate, with double replicate wells, and 4% DMSO solution was added to wells C1, C2, and C3. After that, except for wells C3, 2.5 μl of BTK enzyme solution was added to each remaining well, which was left to stand at 4° C. for 30 minutes. After that, except for wells C3, 2.5 μl of short peptide solution was added to each well, and 5 μl of phosphorylated short peptide solution was added to each of wells C3. 2.5 μl of 1.33× kinase buffer was added to each of wells C1 and C3, and 2.5 μl of ATP solution was added to each of the remaining wells. […]

The structures appear in SMILES notation. pIC50: −log10 of the molar value.

Sequence of phosphorylated BTK in Ramos cells (Q06187 whole entry): as above

As to `COCCN1CCn2nc(Nc3cc(-c4ccnc(-n5ncn6c7c(cc6c5=O)CC(C)(C)C7)c4CO)cn(C)c3=O)cc2[C@@H]1C` [Compound 119, 2-(3′-(hydroxymethyl)-5-((5-(2-methoxyethyl)-4-methyl-4,5,6,7-tetrahydropyrazolo[1,5-a]pyrazin-2-yl) amido)-1-methyl-6-oxo-1,6-dihydro-[3,4′-bispyridin]-2′-yl)-7,7-dimethyl-7,8-dihydro-2H-cyclopenta[4,5]pyrrolo[1,2-d][1,2,4]triazin-1(6H)-one optically Pure], the figures for the pIC50 (in test [1]; at BTK recombinant protein) were 8.70 and 8.15, respectively.

On to `C[C@H]1CN(C2COC2)CCN1c1ccc(Nc2cc(-c3ccnc(-n4ncn5c(c(F)c6ccccc65)c4=O)c3CO)cn(C)c2=O)nc1` [Compound 149], for which the negative logarithm of the IC50 (pIC50) – broadly, the negative decadic logarithm of the IC50, by convention in mol/L – was 8.10 in test [1] and 7.72 at BTK recombinant protein.

With `COC1CN(c2ccc(Nc3cc(-c4ccnc(-n5ccn6c7c(cc6c5=O)CC(C)(C)C7)c4CO)cn(C)c3=O)nc2)C1` [Compound 35], the values for the pIC50 (in test [1]; on BTK recombinant protein) were 8.22 and 7.77, respectively.

Consider `Cn1cc(-c2ccnc(-n3ccn4c5c(cc4c3=O)CC(C)(C)C5)c2CO)cc(Nc2ccc(C3CCN(C4COC4)CC3)nn2)c1=O` [Compound 200], for which the negative logarithm of the IC50 (pIC50) in test [1] was 7.68; at BTK recombinant protein it was 8.40.

With `C[C@@H]1CN(c2ccc(Nc3cc(-c4ccnc(-n5ncn6c7c(c(F)c6c5=O)CCCC7)c4CO)cn(C)c3=O)nc2)[C@@H](C)CN1C1COC1` [Compound 221], the pIC50 is 7.92 in test [1] and 8.10 on BTK recombinant protein.

For the compound `CCn1cc(-c2ccnc(-n3ccn4c5c(cc4c3=O)CC(C)(C)C5)c2CO)cc(Nc2ccc(N3CCOC[C@@H]3C)nn2)c1=O` [Compound 214], the negative-log IC50 (pIC50) in test [1] is 7.62; at BTK recombinant protein, 7.51.

`COCc1c(-c2cc(Nc3ccc(N4CCN(C5COC5)C[C@@H]4C)cn3)c(=O)n(C)c2)ccnc1-n1ccn2c3c(cc2c1=O)CC(C)(C)C3` [Compound 228]: the pIC50 in test [1] is 6.86; on BTK recombinant protein, 6.77.

With `Cn1cc(-c2ccnc(-n3ccn4c5c(cc4c3=O)CC(C)(C)C5)c2CO)cc(Nc2cn(CC(F)(F)F)nn2)c1=O` [Compound 30], the results for the negative logarithm of the IC50 (pIC50) (in test [1]; on BTK recombinant protein) were 8.10 and 8.05, respectively.

Regarding `C[C@H]1c2cc(Nc3cc(-c4ccnc(-n5ccn6c7c(cc6c5=O)CC(C)(C)C7)c4CO)cn(C)c3=O)nn2CCN1C1COC1` [Compound 136], the pIC50 in test [1] was 8.30; on BTK recombinant protein, 8.40.

Turning to `C[C@H]1CN(C2COC2)C(=O)N1c1ccc(Nc2cc(-c3ccnc(-n4ccn5c6c(cc5c4=O)CC(C)(C)C6)c3CO)cn(C)c2=O)nc1` [Compound 123], the pIC50 in test [1] is 8.05; on BTK recombinant protein, 7.89.

On to `CCn1cc(-c2ccnc(-n3ncn4c5c(cc4c3=O)CC(C)(C)C5)c2CO)cc(Nc2ccc(N3CCN(C4COC4)C[C@@H]3C)cn2)c1=O` [Compound 211], for which the pIC50 was 7.70 in test [1] and 7.77 at BTK recombinant protein.

Turning to `CN1CCn2nc(Nc3cc(-c4ccnc(-n5ccn6c7c(cc6c5=O)CC(C)(C)C7)c4CO)cn(C)c3=O)cc2C1=O` [Compound 15], the values for the pIC50 (in test [1]; at BTK recombinant protein) were 7.92 and 7.77, respectively.

For `Cc1ccc2c(c1)cc1c(=O)n(-c3nccc(-c4cc(Nc5ccc(N6CCN(C7COC7)C[C@@H]6C)cn5)c(=O)n(C)c4)c3CO)ccn12` [Compound 188], the pIC50 in test [1] was 7.41; on BTK recombinant protein it was 7.39.

Regarding `Cn1cc(-c2ccnc(-n3ccn4c5c(cc4c3=O)CC(C)(C)C5)c2CO)cc(Nc2ccc(C(=O)N3CCOCC3)cn2)c1=O` [Compound 47], the pIC50 (in test [1]; on BTK recombinant protein) was 8.52 throughout.

Take `C[C@H]1CN(C2CCOC2)CCN1c1ccc(Nc2cc(-c3ccnc(-n4ccn5c6c(cc5c4=O)CC(C)(C)C6)c3CO)cn(C)c2=O)nc1` (stereo partly shown) [Compound 66]: the figures for the negative logarithm of the IC50 (pIC50) (in test [1]; at BTK recombinant protein) were 8.70 and 7.96, respectively.

`COCC(C)N1CCN(c2ccc(Nc3cc(-c4ccnc(-n5ncn6c7c(cc6c5=O)CC(C)(C)C7)c4CO)cn(C)c3=O)nc2)[C@@H](C)C1` (mixture of isomers) [Compound 219]: the pIC50 in test [1] is 7.96; on BTK recombinant protein, 8.40.

`CC(O)CN(CCNc1ccc(Nc2cc(-c3ccnc(-n4ccn5c6c(cc5c4=O)CC(C)(C)C6)c3CO)cn(C)c2=O)nc1)C1COC1` (racemic) [Compound 179]: the negative-log IC50 (pIC50) in test [1] was 7.15; on BTK recombinant protein, 7.72.

Turning to `C[C@@H](CNC1COC1)Nc1ccc(Nc2cc(-c3ccnc(-n4ccn5c6c(cc5c4=O)CC(C)(C)C6)c3CO)cn(C)c2=O)nc1` [Compound 127], the pIC50 in test [1] was 7.74; on BTK recombinant protein, 8.00.

Turning to `CC(C)Nc1cc(-c2ccnc(-n3ccn4c5c(cc4c3=O)CC(C)(C)C5)c2CO)cn(C)c1=O` [Compound 40], the negative logarithm of the IC50 (pIC50) (in test [1]; on BTK recombinant protein) was less than 5.52 throughout.

`COCCN1CCn2nc(Nc3cc(-c4ccnc(-n5ncn6c7c(cc6c5=O)CC(C)(C)C7)c4CO)cn(C)c3=O)cc2C1C` (racemic) [Compound 110, (RS)-2-(3′-(hydroxymethyl)-5-((5-(2-methoxyethyl)-4-methyl-4,5,6,7-tetrahydropyrazolo[1,5-a]pyrazin-2-yl)amido)-1-methyl-6-oxo-1,6-dihydro-[3,4′-bispyridin]-2′-yl)-7,7-dimethyl-7,8-dihydro-2H-cyclopenta[4,5]pyrrolo[1,2-d][1,2,4]triazin-1(6H)-one]: the pIC50 (in test [1]; at BTK recombinant protein) was 8.70 in each case.
